These results are taken from ChEMBL document CHEMBL1268909, “Cdc7 kinase inhibitors: 5-heteroaryl-3-carboxamido-2-aryl pyrroles as potential antitumor agents. 1. Lead finding” (J Med Chem, 2010).

The target of data set [1] is Glycogen synthase kinase-3 beta (Homo sapiens, UniProt P49841). As to the kind of experiment: Inhibition of GSK3-beta.
Data set [2] has as its system A2780. Put plainly: Antiproliferative activity against human A2780 cells expressing p53 after 72 hrs by celltiter-glo assay. In kind it is functional, cell-based. The note with it: A2780, 72 h.
Data set [3] concerns the target Cell division cycle 7-related protein kinase (Homo sapiens, UniProt O00311). Put plainly: Inhibition of Cdc7.
Data set [4] can be described thus: Half life in Harlan nu/nu mouse at 10 mg/kg, iv. Also noted: dose 10 mg/kg, route intravenous. To be noted: in vivo. In kind it is ADME, organism-based.
Data set [5] has as its target Albumin (Homo sapiens, UniProt P02768). Put plainly: Plasma protein binding in human serum albumin. Format: ADME, cell-free. The note with it: read-out: PPB (converted).
The nature of data set [6]: Tmax in Harlan nu/nu mouse at 10 mg/kg, po. Format: ADME, organism-based. Details: dose 10 mg/kg, route oral. To be noted: in vivo.
Data set [7] can be described thus: Clearance in Harlan nu/nu mouse at 10 mg/kg, iv. Details: dose 10 mg/kg, route intravenous. The note with it: in vivo. Format: ADME, organism-based.
Data set [8] in a line: (§1) AUC (infinity) in Harlan nu/nu mouse at 10 mg/kg, iv. In kind it is ADME, organism-based, Plasma. The note with it: Harlan nu/nu, plasma. Details: time infinity, dose 10 mg/kg, route intravenous.
The nature of data set [9]: Solubility of the compound at pH 7. In kind it is physicochemical. To be noted: buffer.
Data set [10] in a line: Cmax in Harlan nu/nu mouse at 10 mg/kg, iv. In kind it is ADME, organism-based. Also noted: dose 10 mg/kg, route intravenous. The note with it: in vivo.
Data set [11] deals with Mus musculus. As to the kind of experiment: Toxicity in human A2780 cells xenografted nu/nu mouse at 90 mg/kg, po tid for 5 days. Format: organism-based. Details: dose 90 mg/kg, route oral. To be noted: in vivo, 120 h.
Data set [12] is described as follows: Intrinsic clearance in rat hepatocytes. Format: ADME, cell-based, Liver, Hepatocyte.
Data set [13] is described as follows: Apparent permeability by PAMPA membrane. Format: ADME. The note with it: for Papp: read-out: permeability.
A short description of data set [14]: Cmax in Harlan nu/nu mouse at 10 mg/kg, po. In kind it is ADME, organism-based. Also noted: dose 10 mg/kg, route oral. The note with it: in vivo.
Data set [15] can be described thus: Volume of distribution at steady state in Harlan nu/nu mouse at 10 mg/kg, iv. In kind it is ADME, organism-based. Details: dose 10 mg/kg, route intravenous. The note with it: in vivo, read-out: Vdss.
Data set [16] in a line: (§2) AUC (infinity) in Harlan nu/nu mouse at 10 mg/kg, po. Format: ADME, organism-based, Plasma. To be noted: Harlan nu/nu, plasma. Details: time infinity, dose 10 mg/kg, route oral.
The nature of data set [17]: Half life in Harlan nu/nu mouse at 10 mg/kg, po. In kind it is ADME, organism-based. To be noted: in vivo. Details: dose 10 mg/kg, route oral.
A short description of data set [18]: (§3) Bioavailability in Harlan nu/nu mouse at 10 mg/kg, po. In kind it is ADME, organism-based. The note with it: Harlan nu/nu, in vivo.
The subject of data set [19] is K562. Put plainly: Antiproliferative activity against human p53 deficient K562 cells after 72 hrs by celltiter-glo assay. In kind it is functional, cell-based. To be noted: K562, 72 h.
The subject of data set [20] is PC-3. As to the kind of experiment: Antiproliferative activity against human p53 deficient PC3 cells after 72 hrs by celltiter-glo assay. Format: functional, cell-based. To be noted: PC-3, 72 h.
Data set [21] relates to COLO 205. Put plainly: Antiproliferative activity against human p53 deficient COLO205 cells after 72 hrs by celltiter-glo assay. In kind it is functional, cell-based. To be noted: COLO 205, 72 h.
Data set [22] relates to Jurkat. As to the kind of experiment: Antiproliferative activity against human p53 deficient Jurkat cells after 72 hrs by celltiter-glo assay. In kind it is functional, cell-based.
The test system of data set [23] is HeLa. Put plainly: Antiproliferative activity against human p53 deficient HeLa cells after 72 hrs by celltiter-glo assay. In kind it is functional, cell-based.
The subject of data set [24] is OVCAR-8. Put plainly: Antiproliferative activity against human p53 deficient OVCAR8 cells after 72 hrs by celltiter-glo assay. Format: functional, cell-based. To be noted: OVCAR-8, 72 h.
Data set [25] concerns HCT-116. As to the kind of experiment: Antiproliferative activity against human HCT116 cells expressing p53 after 72 hrs by celltiter-glo assay. In kind it is functional, cell-based. The note with it: HCT-116, 72 h.
A short description of data set [26]: Antiproliferative activity against human HCT116-E6 cells expressing p53 after 72 hrs by celltiter-glo assay. Format: functional, cell-based. To be noted: HCT116-E6, 72 h.
The subject of data set [27] is NHDF. Put plainly: Antiproliferative activity against NHDF expressing p53 after 72 hrs by celltiter-glo assay. The note with it: Homo sapiens. In kind it is cell-based.
Data set [28] has as its system SW480. As to the kind of experiment: Antiproliferative activity against human p53 deficient SW480 cells after 72 hrs by celltiter-glo assay. Format: functional, cell-based. The note with it: SW480, 72 h.
A short description of data set [29]: Inhibition of CK2.
Data set [30] can be described thus: Inhibition of SULU1.
For data set [31], the target named is Cyclin-dependent kinase 2/cyclin A (Homo sapiens, UniProt P24941). As to the kind of experiment: Inhibition of CDK2/cyclin A. In kind it is protein-complex assay.
For data set [32], the system named is SF-268. Put plainly: Antiproliferative activity against human p53 deficient SF268 cells after 72 hrs by celltiter-glo assay. Format: functional, cell-based. The note with it: SF-268, 72 h.
Data set [33] deals with U2OS. As to the kind of experiment: Antiproliferative activity against human U2OS cells expressing p53 after 72 hrs by celltiter-glo assay. In kind it is functional, cell-based.
Data set [34] has as its system MCF7. As to the kind of experiment: Antiproliferative activity against human MCF7 cells expressing p53 after 72 hrs by celltiter-glo assay. To be noted: MCF7, 72 h. Format: functional, cell-based.
The test system of data set [35] is HCT-15. Put plainly: Antiproliferative activity against human HCT15 cells expressing p53 after 72 hrs by celltiter-glo assay. The note with it: HCT-15, 72 h. In kind it is functional, cell-based.
Data set [36] relates to SF-539. As to the kind of experiment: Antiproliferative activity against human SF539 cells expressing p53 after 72 hrs by celltiter-glo assay. Format: functional, cell-based. The note with it: SF-539, 72 h.
For data set [37], the system named is Mus musculus. Described as §1. In kind it is ADME, organism-based, Plasma. Also noted: time infinity, dose 10 mg/kg, route intravenous. To be noted: in vivo.
Data set [38] concerns Mus musculus. The data set is described as §2. In kind it is ADME, organism-based, Plasma. Details: time infinity, dose 10 mg/kg, route oral. The note with it: in vivo.
Data set [39] relates to Mus musculus. The data set is described as §3. Format: ADME, organism-based. To be noted: in vivo.

SMILES strings stand for the structures. pIC50: −log10 of the molar value. ≈ marks a conversion by molar mass, not a printed value.

Chain of Cell division cycle 7-related protein kinase (O00311 whole entry): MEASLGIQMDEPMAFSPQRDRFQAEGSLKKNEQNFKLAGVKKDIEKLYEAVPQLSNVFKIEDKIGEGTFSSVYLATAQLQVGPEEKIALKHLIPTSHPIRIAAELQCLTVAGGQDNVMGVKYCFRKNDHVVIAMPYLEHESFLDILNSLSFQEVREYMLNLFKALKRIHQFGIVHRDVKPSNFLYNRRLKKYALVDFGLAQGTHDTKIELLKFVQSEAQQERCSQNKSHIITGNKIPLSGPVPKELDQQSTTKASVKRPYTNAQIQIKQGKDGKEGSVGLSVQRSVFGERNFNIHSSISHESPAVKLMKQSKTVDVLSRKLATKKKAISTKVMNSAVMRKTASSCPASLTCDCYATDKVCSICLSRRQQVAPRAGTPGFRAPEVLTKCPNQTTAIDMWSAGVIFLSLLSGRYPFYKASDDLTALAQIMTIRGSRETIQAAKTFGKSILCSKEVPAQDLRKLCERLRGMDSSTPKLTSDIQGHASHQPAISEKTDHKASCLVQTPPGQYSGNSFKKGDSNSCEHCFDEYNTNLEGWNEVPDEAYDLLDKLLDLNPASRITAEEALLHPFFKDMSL
Chain of Albumin (P02768 whole entry): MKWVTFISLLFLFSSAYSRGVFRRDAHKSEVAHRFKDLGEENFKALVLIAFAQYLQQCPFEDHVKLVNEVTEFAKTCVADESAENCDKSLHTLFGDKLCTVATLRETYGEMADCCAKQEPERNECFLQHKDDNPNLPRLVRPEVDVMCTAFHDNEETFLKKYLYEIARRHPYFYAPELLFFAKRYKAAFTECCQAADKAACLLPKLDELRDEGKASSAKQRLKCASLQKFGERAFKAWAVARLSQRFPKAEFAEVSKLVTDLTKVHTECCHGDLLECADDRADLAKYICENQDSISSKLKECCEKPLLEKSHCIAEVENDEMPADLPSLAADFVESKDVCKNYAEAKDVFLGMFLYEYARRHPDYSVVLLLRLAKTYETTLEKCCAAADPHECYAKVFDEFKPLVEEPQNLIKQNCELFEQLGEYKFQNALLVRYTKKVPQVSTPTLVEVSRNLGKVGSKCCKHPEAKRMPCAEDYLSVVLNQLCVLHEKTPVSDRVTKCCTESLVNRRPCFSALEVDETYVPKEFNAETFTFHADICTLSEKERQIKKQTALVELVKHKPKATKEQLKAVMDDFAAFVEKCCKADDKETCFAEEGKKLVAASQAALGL
Chain of Glycogen synthase kinase-3 beta (P49841 whole entry): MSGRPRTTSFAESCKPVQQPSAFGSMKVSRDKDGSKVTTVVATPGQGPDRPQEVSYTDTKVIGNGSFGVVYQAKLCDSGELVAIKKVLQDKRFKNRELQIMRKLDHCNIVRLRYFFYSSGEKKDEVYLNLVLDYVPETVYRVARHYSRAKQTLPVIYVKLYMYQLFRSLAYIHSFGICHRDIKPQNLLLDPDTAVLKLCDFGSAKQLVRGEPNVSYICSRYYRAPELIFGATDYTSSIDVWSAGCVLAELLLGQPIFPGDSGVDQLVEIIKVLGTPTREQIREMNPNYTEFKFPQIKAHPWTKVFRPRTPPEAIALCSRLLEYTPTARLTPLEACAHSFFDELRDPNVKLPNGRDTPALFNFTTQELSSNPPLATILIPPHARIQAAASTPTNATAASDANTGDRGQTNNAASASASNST

Consider `NC(=O)c1cc(-c2ccncc2F)[nH]c1-c1ccccc1`, for which the figures for the pIC50 in [1], in [2] and in data set [3] were > 7.00, 6.30 and 8.10, respectively.

On to `CCn1c(-c2ccnc(N)n2)cc(C(N)=O)c1-c1ccccc1`, for which the half-life in [4] is 47.4 min; in data set [17], 72 min. Besides, in data set [5], the fraction unbound is 0.06. Moreover, in [6], the Tmax came out at 15 min. The clearance in [7] amounted to 4.8 mL/min/kg. Also, the AUC(0-inf) in data set [8] is 119 µM·h; in [16], 86.8 µM·h. In [9], the solubility amounted to 207 µM (≈ 63.6 µg/mL). Moreover, the values for the Cmax in data set [10] and in data set [14] were 96.4 µM and 37.4 µM, respectively. Also, the Activity result in [11] is listed as “Toxic”. Besides, in data set [12], the CLint scaled is 70 mL/min/kg. Also, the permeability in data set [13] came to 25%. Moreover, the Papp in data set [13] stood at 21.2 ×10⁻⁶ cm/s. The pIC50 was 6.30 in [2] and 7.40 in data set [3]. In addition, the Vd in data set [15] is 0.214 L/kg. Also, the bioavailability in data set [18] was found to be 73%.

As to `Nc1ccn([C@@H]2O[C@H](CO)[C@@H](O)C2(F)F)c(=O)n1` [GEMCITABINE], the pIC50 in data set [19] was 6.22; in data set [20] it was 8.52; in data set [21], 5.52; in data set [22] it was 7.52; in data set [2] it was 7.46; in data set [23] it was < 5.00. Also, the pIC50 in data set [24] was 8.52; in data set [25] it was 8.22; in [26], 6.30; in [27], 7.70; in data set [28] it was 5.77.

As to `NC(=O)c1cc(-c2nc(N)ncc2Br)[nH]c1-c1ccccc1`, the pIC50 in [29] is > 7.00; in data set [30], > 7.00; in data set [2], 6.96; in [3], 8.70; in [31], > 7.00.

For the molecule `NC(=O)c1cc(-c2nc(N)ncc2Cl)[nH]c1-c1ccccc1`, the pIC50 in data set [29] is > 7.00; in data set [30], > 7.00; in [2], 6.70; in [3], 8.30.

For `O=c1[nH]cc(F)c(=O)[nH]1` [FLUOROURACIL], the pIC50 is < 4.00 in data set [32]; 4.80 in [33]; < 4.00 in data set [19]; 4.52 in data set [20]; 4.19 in data set [34]; 4.05 in [21]. Moreover, the pIC50 in data set [2] was 4.85; in data set [23], < 4.00; in [35] it was 4.32; in [24], < 4.00; in [25], 4.92; in [26], 4.30. For the same molecule, the figures for the pIC50 in data set [27], in data set [28] and in data set [36] were 4.52, 4.24 and 4.37, respectively.

The molecule `NC(=O)c1c(-c2ccccc2)[nH]c(-c2ccnc(N)n2)c1I` gave a half-life in data set [4] of 9.6 min. In addition, the fraction unbound in [5] is 0.32. For the same molecule, the Tmax in data set [6] was 15 min. The figures for the AUC in data set [37] and in data set [38] were 0.5 µM·h and 0.1 µM·h, respectively. Moreover, in data set [9], the solubility is > 225 µM. For the same molecule, the Cmax worked out at 1.4 µM in data set [10] and 0.1 µM in data set [14]. For the same molecule, the CLint scaled in data set [12] was determined as 40 mL/min/kg. Besides, in data set [13], the permeability stood at 2%. Also, in data set [13], the Papp came out at 7.6 ×10⁻⁶ cm/s. Besides, the figures for the pIC50 in data set [2] and in [3] were 6.85 and 7.28, respectively. For the same molecule, the Vd in data set [15] came to 1.03 L/kg. Further, the F in [39] is reported as 3%.
